Experimental findings from PMC12040169 (PLOS Biology, 2025) are described below.

Data set [1] relates to T1, C. trachomatis L2/434/Bu expressing GFP (CTL2-GFP).
T1 construct: L2/434/Bu GFP intracellular growth in HeLa cells
Briefly: microbe, parasite or virus in culture. The arrangement: C. trachomatis total inclusion area by high-content imaging, normalised to DMSO. The settings on record: Chlamydia trachomatis, HeLa, 28.5 h; total inclusion area; read-out: % of control remaining. In outline:
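Screening measures GFP fluorescence from the reporter strain and resorufin fluorescence for host viability, with Hoechst-based imaging of fixed cells adding inclusion area, inclusion number and nuclei count per well.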

Data set [2] concerns T2, CTL2-GFP (C. trachomatis L2/434/Bu, GFP-expressing).
T2 construct: L2/434/Bu, GFP-expressing
Nature of the data set: microbe, parasite or virus in culture. The following applies: Chlamydia trachomatis, HeLa, 28.5 h; bulk GFP, mean of 2; read-out: % of control remaining. The arrangement: Intracellular C. trachomatis growth in HeLa cells, bulk GFP fluorescence relative to DMSO. How it is done:
MICs were calculated as described above.

A short description of the next data set: in vitro. More on the design: Viability of infected HeLa host cells, resazurin conversion, bulk resorufin fluorescence relative to DMSO. The following applies: human, hela cells; bulk resorufin, mean of 2.

For `Cc1cc(C(=O)Nc2ccc(S(=O)(=O)Nc3onc(C)c3C)cc2)no1` [CBK268166], in data set [1], the activity at 1 µM was 89.9%, the activity at 5 µM is 77.7% and the activity at 10 µM was found to be 61.3%. In addition, in data set [2], the activity at 1 µM was determined as 113%, the activity at 5 µM was 81.5% and the activity at 10 µM amounted to 33.7%. Also, in the data set “in vitro”, the viability (commonly a read-out of living cells in per cent, often relative to untreated cells) at 28.5 h, 1 µM was 101%; the viability at 28.5 h, 5 µM amounted to 92.7%; the viability at 28.5 h, 10 µM came to 100%.

`COc1ccc(OC)c(Nc2nc(NCC3CCCO3)c3ccccc3n2)c1` (stereo not drawn) [CBK268403C]: in data set [1], the activity at 1 µM worked out at 73.4%, the activity at 5 µM amounted to 61% and the activity at 10 µM is 10.2%. For the same compound, in data set [2], the activity at 1 µM amounted to 127%, the activity at 5 µM amounted to 105% and the activity at 10 µM is 26.6%. Moreover, in “in vitro”, the viability at 28.5 h, 1 µM worked out at 97.5%; the viability at 28.5 h, 5 µM turned out to be 96.9%; the viability at 28.5 h, 10 µM worked out at 99.1%.

With `CN(C(=O)Cc1ccsc1)c1nc2c(s1)CCc1c-2cnn1C` [CBK281929], in data set [1], the activity at 1 µM came to 85.4%, the activity at 5 µM stood at 28.7% and the activity at 10 µM amounted to 14.3%. Moreover, in data set [2], the activity at 1 µM was determined as 104%, the activity at 5 µM was 56.8% and the activity at 10 µM is 29.8%. Besides, in “in vitro”, the viability at 28.5 h, 1 µM is 103%; the viability at 28.5 h, 5 µM worked out at 96%; the viability at 28.5 h, 10 µM stood at 93.3%.

Consider `COc1ccc2cc3c(nc2c1)OC(=O)N(CC1CC1)C3` [CBK282432], for which, in data set [1], the activity at 1 µM turned out to be 90.9%, the activity at 5 µM is 15.2% and the activity at 10 µM was found to be 0.584%. Also, in data set [2], the activity at 1 µM was 92.7%, the activity at 5 µM was 19% and the activity at 10 µM turned out to be 0.603%. Moreover, in the data set “in vitro”, the viability at 28.5 h, 1 µM came out at 112%; the viability at 28.5 h, 5 µM stood at 108%; the viability at 28.5 h, 10 µM is 110%.

For the compound `CCC(CN1CCCC1)NC(=O)Cc1ccc(OC)c(C)c1` (stereo not drawn) [CBK282752], in data set [1], the activity at 1 µM was found to be 108%, the activity at 5 µM was found to be 47.2% and the activity at 10 µM stood at 26.1%. Moreover, in data set [2], the activity at 1 µM is 100%, the activity at 5 µM was found to be 50.3% and the activity at 10 µM worked out at 19.9%. Also, in “in vitro”, the viability at 28.5 h, 1 µM was found to be 108%; the viability at 28.5 h, 5 µM amounted to 112%; the viability at 28.5 h, 10 µM stood at 108%.

For `O=C1CC[C@@H](NCc2cccs2)[C@H](c2cc(F)cc(F)c2)N1` [CBK283129], in data set [1], the activity at 1 µM came to 98.3%, the activity at 5 µM turned out to be 76.7% and the activity at 10 µM turned out to be 78.8%. In addition, in data set [2], the activity at 1 µM came to 98.3%, the activity at 5 µM stood at 98.8% and the activity at 10 µM turned out to be 82.2%. Further, in the data set “in vitro”, the viability at 28.5 h, 1 µM is 112%; the viability at 28.5 h, 5 µM is 109%; the viability at 28.5 h, 10 µM is 110%.

Regarding `COc1ccc([C@H]2CN(Cc3ccccc3)[C@@H]3CCN(C(=O)Cc4ccsc4)C[C@H]23)cc1` [CBK285551], in data set [1], the activity at 1 µM is 148%, the activity at 5 µM came to 87.9% and the activity at 10 µM is 48.8%. In addition, in data set [2], the activity at 1 µM amounted to 151%, the activity at 5 µM is 107% and the activity at 10 µM turned out to be 36.7%. Moreover, in “in vitro”, the viability at 28.5 h, 1 µM was 89.3%; the viability at 28.5 h, 5 µM amounted to 93.6%; the viability at 28.5 h, 10 µM is 93%.

In the case of `COc1ccc(CC(=O)N2CCCC(c3nc(C)c4c(n3)N(CC3CC3)CCC4)C2)cc1` (stereo not drawn) [CBK286228], in data set [1], the activity at 1 µM worked out at 88.7%, the activity at 5 µM was 46.6% and the activity at 10 µM was determined as 3.42%. In data set [2], the activity at 1 µM was found to be 130%, the activity at 5 µM amounted to 39.3% and the activity at 10 µM amounted to 5.11%. Moreover, in the data set “in vitro”, the viability at 28.5 h, 1 µM was determined as 102%; the viability at 28.5 h, 5 µM came out at 97.8%; the viability at 28.5 h, 10 µM came to 97%.
